Drawing on patent US12466809B2, “CDK2/5 degraders and uses thereof” (DANA-FARBER CANCER INSTITUTE, INC., priority 2019, dated 2025), this text covers IC50 for 7 compounds.

Broadly, the IC50 is the midpoint of a concentration-inhibition curve. A high value points to weaker potency in that assay.

One assay concerns the target CDK2/Cyclin A (Homo sapiens (Human), UniProt P24941). As to the kind of experiment: Invitrogen Z'-LYTE kinase assay CDK2/Cyclin A (assay ID 315, Km app, 10-point titration). Format: biochemical. Particulars: Km app ATP. From the text:
(§1) CDK2 and CDK5 IC50 data were attained through the use of Invitrogen™ commercial assays. The method for CDK2 (assay ID: 315, kinase|Z'-LYTE™|CDK2/Cyclin A|Km app) used a 10-point titration. The method for CDK5 (assay ID: 318, kinase|Z'-LYTE™|CDK5/p25|Km app) used a 10-point titration.

For the next assay, the target named is CDK5/p25 (Homo sapiens (Human), UniProt Q00535). As to the kind of experiment: Invitrogen Z'-LYTE kinase assay CDK5/p25 (assay ID 318, Km app, 10-point titration). The class given is biochemical. Particulars: CDK5/p25, Km app ATP.
Sequence of CDK5/p25 (Q00535 whole entry): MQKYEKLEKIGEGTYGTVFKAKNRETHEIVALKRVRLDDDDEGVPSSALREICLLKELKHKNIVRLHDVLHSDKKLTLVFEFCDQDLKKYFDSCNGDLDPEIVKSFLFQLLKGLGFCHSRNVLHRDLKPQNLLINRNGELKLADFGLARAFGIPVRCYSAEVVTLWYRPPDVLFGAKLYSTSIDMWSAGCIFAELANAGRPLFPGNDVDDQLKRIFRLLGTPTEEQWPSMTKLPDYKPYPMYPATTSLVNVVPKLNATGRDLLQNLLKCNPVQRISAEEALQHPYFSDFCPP
Sequence of CDK5/p25 (Q15078 99-307 partner): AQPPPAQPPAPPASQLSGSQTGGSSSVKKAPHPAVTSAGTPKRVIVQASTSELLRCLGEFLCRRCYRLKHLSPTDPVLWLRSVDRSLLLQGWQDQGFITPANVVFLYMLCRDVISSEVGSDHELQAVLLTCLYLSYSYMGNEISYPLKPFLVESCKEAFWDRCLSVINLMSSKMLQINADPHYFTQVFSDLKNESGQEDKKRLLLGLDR
Excerpt: as §1

On to `NC(=O)c1c(F)cccc1Nc1nc(NC2CCN(S(=O)(=O)CCNC(=O)CCOCCOCCOCCOCCNc3cccc4c3C(=O)N(C3CCC(=O)NC3=O)C4=O)CC2)ncc1Br` (centres unmarked) [Compound 1, N-(2-((4-((5-bromo-4-((2-carbamoyl-3-fluorophenyl)amino)pyrimidin-2-yl)amino)piperidin-1-yl)sulfonyl)ethyl)-1-((2-(2,6-dioxopiperidin-3-yl)-1,3-dioxoisoindolin-4-yl)amino)-3,6,9,12-tetraoxapentadecan-15-amide], for which the IC50 against CDK2/Cyclin A was 6.4 nM; against CDK5/p25, 8.1 nM.
Regarding `Cc1ncsc1-c1ccc([C@H](C)NC(=O)[C@@H]2C[C@@H](O)CN2C(=O)[C@@H](NC(=O)CCOCCOCCC(=O)NCCS(=O)(=O)N2CCC(Nc3ncc(Br)c(Nc4cccc(F)c4C(N)=O)n3)CC2)C(C)(C)C)cc1` [Compound 11, (2S,4R)-1-((S)-16-((4-((5-bromo-4-((2-carbamoyl-3-fluorophenyl)amino)pyrimidin-2-yl)amino)piperidin-1-yl)sulfonyl)-2-(tert-butyl)-4,13-dioxo-7,10-dioxa-3,14-diazahexadecanoyl)-4-hydroxy-N—((S)-1-(4-(4-methylthiazol-5-yl)phenyl)ethyl)pyrrolidine-2-carboxamide], half-maximal inhibition against CDK5/p25 (IC50) required 4.8 nM.
The compound `Cc1ncsc1-c1ccc([C@H](C)NC(=O)[C@@H]2C[C@@H](O)CN2C(=O)[C@@H](NC(=O)CCC(=O)NCCS(=O)(=O)N2CCC(Nc3ncc(Br)c(Nc4cccc(F)c4C(N)=O)n3)CC2)C(C)(C)C)cc1` [Compound 12, N^1-(2-((4-((5-bromo-4-((2-carbamoyl-3-fluorophenyl)amino)pyrimidin-2-yl)amino)piperidin-1-yl)sulfonyl)ethyl)-N^4—((S)-1-((2S,4R)-4-hydroxy-2-(((S)-1-(4-(4-methylthiazol-5-yl)phenyl)ethyl)carbamoyl)pyrrolidin-1-yl)-3,3-dimethyl-1-oxobutan-2-yl)succinamide] showed an IC50 at CDK5/p25 of 3.7 nM.
In turn, `NC(=O)c1c(F)cccc1Nc1nc(NC2CCN(S(=O)(=O)CCNC(=O)CCC(=O)NCCCCCNc3cccc4c3C(=O)N(C3CCC(=O)NC3=O)C4=O)CC2)ncc1Br` (centres unmarked) [Compound 13, N^1-(2-((4-((5-bromo-4-((2-carbamoyl-3-fluorophenyl)amino)pyrimidin-2-yl)amino)piperidin-1-yl)sulfonyl)ethyl)-N^4-(5-((2-(2,6-dioxopiperidin-3-yl)-1,3-dioxoisoindolin-4-yl)amino)pentyl)succinamide] came in with a concentration for half-maximal inhibition (IC50) at CDK5/p25 of 4.3 nM.
At CDK5/p25, `NC(=O)c1c(F)cccc1Nc1nc(NC2CCN(S(=O)(=O)CCNC(=O)CCCCCCCCC#Cc3cccc4c3CN(C3CCC(=O)NC3=O)C4=O)CC2)ncc1Br` (centres unmarked) [Compound 14, 2-((5-bromo-2-((1-((2-(11-(2-(2,6-dioxopiperidin-3-yl)-1-oxoisoindolin-4-yl)undec-10-ynamido)ethyl)sulfonyl)piperidin-4-yl)amino)pyrimidin-4-yl)amino)-6-fluorobenzamide] returned an IC50 of 31.2 nM. This IC50 is about 7.3-fold higher than that of the compound before.
Same read-out and setting: the figure for `NC(=O)c1c(F)cccc1Nc1nc(NC2CCN(S(=O)(=O)CCNC(=O)CCCCCCCCCCc3cccc4c3CN(C3CCC(=O)NC3=O)C4=O)CC2)ncc1Br` (centres unmarked) [Compound 15, 2-((5-bromo-2-((1-((2-(11-(2-(2,6-dioxopiperidin-3-yl)-1-oxoisoindolin-4-yl)undecanamido)ethyl)sulfonyl)piperidin-4-yl)amino)pyrimidin-4-yl)amino)-6-fluorobenzamide] is 18.2 nM; for `O=C(CCCCCCCCC#Cc1cccc2c1CN(C1CCC(=O)NC1=O)C2=O)NCCS(=O)(=O)N1CCC(Nc2ncc(Br)c(Nc3cccc4c3OCO4)n2)CC1` (centres unmarked) [Compound 16, N-(2-((4-((4-(benzo[d][1,3]dioxol-4-ylamino)-5-bromopyrimidin-2-yl)amino)piperidin-1-yl)sulfonyl)ethyl)-11-(2-(2,6-dioxopiperidin-3-yl)-1-oxoisoindolin-4-yl)undec-10-ynamide] it is 4370 nM.
